Assay results: US20260274922A1, “SYNTHETIC ESTROGEN RECEPTOR (ER)-DERIVED PEPTIDE” (THE TEXAS A&M UNIVERSITY SYSTEM, priority 2023, published 2026)
Where a SMILES comes first, the peptide text is derived from it. The star is where a group is joined. Cbz = O=C(OCc1ccccc1)*

T1: IRS1 (Homo sapiens, UniProt P35568)
T1 sequence (P35568 1-1242): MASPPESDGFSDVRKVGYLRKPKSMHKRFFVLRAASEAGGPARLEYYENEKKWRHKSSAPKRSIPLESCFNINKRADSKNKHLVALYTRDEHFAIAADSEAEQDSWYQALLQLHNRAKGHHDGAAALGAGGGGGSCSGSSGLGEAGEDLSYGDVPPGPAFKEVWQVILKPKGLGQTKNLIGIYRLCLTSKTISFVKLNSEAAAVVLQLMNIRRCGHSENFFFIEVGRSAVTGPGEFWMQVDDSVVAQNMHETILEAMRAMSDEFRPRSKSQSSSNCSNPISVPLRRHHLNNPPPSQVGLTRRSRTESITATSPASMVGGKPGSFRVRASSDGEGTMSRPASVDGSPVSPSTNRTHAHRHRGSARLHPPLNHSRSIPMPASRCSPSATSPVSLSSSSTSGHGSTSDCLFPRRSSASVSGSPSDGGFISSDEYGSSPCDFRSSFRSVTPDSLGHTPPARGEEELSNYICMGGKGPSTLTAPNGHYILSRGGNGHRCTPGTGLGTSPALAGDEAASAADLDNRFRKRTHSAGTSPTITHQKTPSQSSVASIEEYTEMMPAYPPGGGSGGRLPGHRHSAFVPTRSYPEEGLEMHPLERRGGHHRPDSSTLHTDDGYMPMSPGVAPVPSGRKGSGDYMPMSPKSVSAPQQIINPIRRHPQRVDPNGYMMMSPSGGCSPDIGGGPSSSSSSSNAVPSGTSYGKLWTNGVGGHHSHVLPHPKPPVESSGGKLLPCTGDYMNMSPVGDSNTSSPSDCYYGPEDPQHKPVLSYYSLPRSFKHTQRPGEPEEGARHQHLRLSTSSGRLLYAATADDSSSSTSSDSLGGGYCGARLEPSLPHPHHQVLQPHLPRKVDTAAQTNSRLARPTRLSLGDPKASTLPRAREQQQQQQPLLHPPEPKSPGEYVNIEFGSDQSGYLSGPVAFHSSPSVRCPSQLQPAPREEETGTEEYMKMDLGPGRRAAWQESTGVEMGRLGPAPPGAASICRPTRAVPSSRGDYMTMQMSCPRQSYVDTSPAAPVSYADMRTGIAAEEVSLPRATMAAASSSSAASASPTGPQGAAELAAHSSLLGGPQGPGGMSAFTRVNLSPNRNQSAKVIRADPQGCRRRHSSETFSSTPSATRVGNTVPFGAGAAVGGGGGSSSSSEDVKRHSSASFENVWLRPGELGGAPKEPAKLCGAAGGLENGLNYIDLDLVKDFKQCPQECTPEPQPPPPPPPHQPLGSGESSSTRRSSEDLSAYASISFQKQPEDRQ


Legend:
Assay type in all cases: cell-based
[1] = test system: IRS1; assay: IRS1 protein levels in ERα deficient mouse primary hepatocytes treated with MG132; settings: ERαLivKO hepatocytes, 10 μM MG132 for 3 hours
Method: Representative blots are shown. […] Co-immunoprecipitation was performed.
Primary hepatocytes isolation and cell culture. Primary hepatocytes were isolated. Male mice at age of 8-12 weeks were infused with a perfusion buffer A (calcium and magnesium-free HBSS supplemented with 10 mM HEPES, 50 mM EGTA, 1 mM glucose, and 1% penicillin-streptomycin, pH 7.4) through portal vein for 6-8 min. Then perfusion buffer A was changed to buffer B (calcium and magnesium-free HBSS supplemented with 10 mM HEPES, 1 mM CaCl2), 1 mM glucose, 1% penicillin-streptomycin, and 0.5 mg/mL collagenase II, pH 7.4). […] Liver cells were suspended and passed through a 70 μm cell strainer, followed by centrifuge at 1700 rpm for 2 min. Pellets were resuspended with Percoll at final concentration of 36% and centrifuged at 1800 rpm for 6 min. The hepatocyte pellet was washed and suspended with DMEM supplemented with 10% FBS and 1% penicillin-streptomycin in collagen-coated plates. The HepG2 cell line was purchased from Abcam and cultured with DMEM medium supplemented with 10% FBS and 1% penicillin-streptomycin in collagen-coated plates. The human embryo kidney (HEK) 293 cell line was purchased from Sigma and cultured with DMEM medium supplemented with 10% FBS and 1% penicillin-streptomycin. […]
(§1) Co-immunoprecipitation and Western blotting analysis. […] Protein bands were detected using a ChemiDoc image system.

[2] = molecular target: T1, IRS1; assay: Immunofluorescence staining in HEK293T cells
Method: Immunofluorescence staining. Cells were fixed with 4% formaldehyde solution, followed by incubation with blocking buffer (1×PBS/5% normal serum/0.3% Triton X-100) for 1 h. After rinsing three times using PBS, cells were incubated with primary antibodies overnight at 4° C. Cells were washed with PBS and incubated with secondary antibodies (anti-mouse Alexa Flour 594 Conjugated) at room temperature 1-2 h. Cells were covered with DAPI-contained mounting medium. Fluorescent signal was observed using Confocal microscopy (Leica).

[3] = test system: HepG2 cells (IRS1, pAKT); assay: Gain-of-function of ERα domains on insulin sensitivity in HepG2 cells; settings: overexpression
Method: Primary hepatocytes isolation and cell culture. Primary hepatocytes were isolated. Male mice at age of 8-12 weeks were infused with a perfusion buffer A (calcium and magnesium-free HBSS supplemented with 10 mM HEPES, […], 1 mM glucose, and 1% penicillin-streptomycin, pH 7.4) through portal vein for 6-8 min. Then perfusion buffer A was changed to buffer B (calcium and magnesium-free HBSS supplemented with 10 mM HEPES, 1 mM CaCl2), 1 mM glucose, 1% penicillin-streptomycin, and 0.5 mg/mL collagenase II, pH 7.4). […] Liver cells were suspended and passed through a 70 μm cell strainer, followed by centrifuge at 1700 rpm for 2 min. Pellets were resuspended with Percoll at final concentration of 36% and centrifuged at 1800 rpm for 6 min. The hepatocyte pellet was washed and suspended with DMEM supplemented with 10% FBS and 1% penicillin-streptomycin in collagen-coated plates. The HepG2 cell line was purchased from Abcam and cultured with DMEM medium supplemented with 10% FBS and 1% penicillin-streptomycin in collagen-coated plates. The human embryo kidney (HEK) 293 cell line was purchased from Sigma and cultured with DMEM medium supplemented with 10% FBS and 1% penicillin-streptomycin. FBS-free DMEM medium was used to culture cells during the experiments.
as §1

[4] = test system: ERα mRNA; assay: ERα mRNA expression in mouse primary hepatocytes treated with insulin; settings: 200 nM insulin for 12 hours
Description: FIGS. 8A and 8B show the hyperinsulinemia decreases ERα mRNA expression in mouse primary hepatocytes. […] Data are presented as mean±SEM. * p<0.05, One-way ANOVA.
RNA extraction and quantitative real-time PCR. Total RNA was extracted from livers or primary hepatocytes using TRIzol (Invitrogen, Thermo Fisher Scientific), purified with chloroform, 80% ethanol, isopropanol, and RNA column, eluted with RNase free water, and reverse transcribed into cDNA using iScript Reverse Transcription Supermix (Bio-Rad, Hercules, CA). Quantitative real-time PCR (qPCR) was conducted using SsoAdvanced Universal SYBR Green Supermix (Bio-Rad, Hercules, CA) on CFX384 real-time PCR detection system (Bio-Rad, Hercules, CA). Q-PCR started with 95° C. incubation for 3 min, followed by 39 cycles of 95° C. for 5 s and 60° C. for 30 s. The threshold cycle (CT) values were obtained and used to calculate the relative transcriptional level of target genes by 2^−ΔΔCT method with Cyclophilin (Cyp) as an internal control. […].

colocalization with IRS1 [2]	Molecule	enhancement of insulin-stimulated AKT phosphorylation [3]	increase in IRS1 [3]	other results
–	CC(C)C[C@@H](C=O)NC(=O)[C@H](CC(C)C)NC(=O)[C@H](CC(C)C)NC(=O)OCc1ccccc1 [MG132] (Cbz-Leu-Leu-Leu-aldehyde)	–	–	IRS1 protein levels [1]: significantly increased
colocalization with IRS1	MTMTLHTKASGMALLHQIQGNELEPLNRPQLKIPLERPLGEVYLDSSKPAVYNYPEGAAY (Description of sequence: ER-alpha amino acids 1-60) [ERα 1-60, ERα amino acids 1-60 domain]	~ 26%	~ 80%	–
colocalization with IRS1	TKASGMALLHEPLNRPQLKIPLERDSSKPAVYNY (Description of sequence: AF1 domain portion sequence) [34-amino acid-peptide, overexpressed in cells]	~ 26%	~ 80%	–
–	insulin: insulin used to treat primary hepatocytes (200 nM)	–	–	mRNA expression levels of ERα [4]: significantly decreased
–	ERα 60-280: ERα 60-280 domain, overexpressed in HepG2 cells (protein, UniProt P03372 60-280, looked up, fragment) YEFNAAAAANAQVYGQTGLPYGPGSEAAAFGSNGLGGFPPLNSVSPSPLMLLHPPPQLSPFLQPHGQQVPYYLENEPSGYTVREAGPPAFYRPNSDNRRQGGRERLASTNDKGSMAMESAKETRYCAVCNDYASGYHYGVWSCEGCKAFFKRSIQGHNDYMCPATNQCTIDKNRRKSCQACRLRKCYEVGMMKGGIRKDRRGGRMLKHKRQRDDGEGRGEV	–	–	IRS1 protein levels [3]: no significant effect; insulin-induced AKT phosphorylation [3]: no significant effect
